Experimental data from US8758474B2, “Urea fertilizer containing central volatilization inhibitor particles to reduce release of ammonia and processes for making same” (NFT Industries, LLC, priority 2010, dated 2014).

Tested on: enzymes in the soil
Experiment: Ammonia volatilization test (fertilizer applied to the surface of moist soil, ammonia captured in sulfuric acid and titrated)
Details: cumulative, percent of total starting nitrogen
Source text: Nitrogen lost, as ammonia, after soil application occurs over a long time period. The present volatilization test was designed to simulate and quantify processes in the soil. The volatilization test apparatus and procedure utilized to evaluate the test product samples described in above Table 1 is summarized as follows.
Procedure for Measurement of Ammonia
The test was designed to determine the volatility of a fertilizer product when applied to the surface of the soil. The baseline, standard that used was one gram of urea. Each sample was placed in a sample flask which contained a pre-weighed amount of soil and water. The same source of soil was used in all testing. Humidified air was then passed over the sample to carry any ammonia which had volatilized by the enzymes in the soil, to a receiving flask. The receiving flask contained sulfuric acid which captured the ammonia. The receiving flask was then titrated to determine the amount of ammonia volatilized from each sample.
Mixed Methyl Red—Methylene Blue Indicator (150 mL): • Dissolve 0.2 g of methyl red in 100 mL of ethyl alcohol (70-95%). Dissolve 0.1 g methylene blue in 50 mL of ethyl alcohol (70-95%). Mix together. • Indicator was good for 30 days. Testing Apparatus: Manifold: • a. A manifold was constructed of ½ inch cpvc (chlorinated polyvinyl chloride). • b. The manifold has 22 ports with a needle valve for air flow adjustment. • c. The tubing from the manifold to the sample flask was connected to a 1/16 inch hose barb on the needle valve.
2. Air Supply: • a. The air was supplied by an air compressor with a regulator to control the pressure to the manifold. • b. The air goes through a rotameter with a control knob to adjust the flow to the manifold (A minimum of 70 volumes of the head space is in each sample flask during each sampling interval, often much higher. Head space refers to the air volume above the soil.). • c. The air from the rotameter goes through a bubbler containing 25% sulfuric acid solution. After the sulfuric acid bubbler is a knock out chamber to prevent any sulfuric acid mist from going further. • d. The air then goes to a water bubbler to hydrate the air before going through another knock out chamber before entering the manifold.
3. Sample Flask • a. The sample flask is a 250 mL Erlenmeyer flask. The tubing from the manifold is connected to the flask by a barb fitting in a rubber stopper. • b. Each sample flask contained 48 grams of soil (dried and sieved through a 12 mesh screen), 12 grams of water, and the equivalent of one gram of urea. The materials were added to the flasks in the order list to ensure that the sample was added to moist soil (20-25%).
4. Receiving Flask • a. The receiving flask is a 125 mL Erlenmeyer flask. Tubing from the stopper on the sample flask is connected to a glass sparger passing through a stopper to the receiving flask. • b. Each receiving flask contains 50 mL of 0.5N Sulfuric Acid. • c. The tip of the glass sparger is below the level of the acid to allow the air to bubble through the acid and capture any ammonia present. • d. The receiving flask is removed and replaced with flask containing fresh solution at the intervals of 3, 7 and 10 days.
5. Measurement of Ammonia • a. The contents of each receiving flask removed at the intervals of 3, 7 and 10 days were tested for ammonia according to the above described Procedure for Measurement of Ammonia. The first ten days are most critical and are sufficient to determine reliable comparative results. • b. […] Ammonia Volatilization Test Results for Products in Table 2

Row | Structure (SMILES) | % Ammonia Released (Table 4 series, Day 0) | % Ammonia Released (Table 4 series, Day 3) | % Ammonia Released (Table 4 series, Day 7) | % Ammonia Released (Table 4 series, Day 10) | % Ammonia Released (Table 2 series, Day 0) | % Ammonia Released (Table 2 series, Day 3) | % Ammonia Released (Table 2 series, Day 7) | % Ammonia Released (Table 2 series, Day 10) | % Ammonia Released (Table 3 series, Day 0) | % Ammonia Released (Table 3 series, Day 3) | % Ammonia Released (Table 3 series, Day 7) | % Ammonia Released (Table 3 series, Day 10) | % Ammonia Released (Table 5 series, Day 0) | % Ammonia Released (Table 5 series, Day 3) | % Ammonia Released (Table 5 series, Day 7) | % Ammonia Released (Table 5 series, Day 10)
1 | N.O=P(O)(O)O [MAP, monoammonium phosphate] | 0% | 0.74% | 1.61% | 2.09% |  |  |  |  |  |  |  |  |  |  |  | 
2 | NC(N)=O [Urea] | 0% | 27.41% | 88.77% | 90.81% | 0% | 0.23% | 72.29% | 82.37% | 0% | 1.09% | 38.83% | 81.33% | 0% | 0.05% | 40.35% | 65.11%
